Results from US9221756B2, “Pyrrole derivatives” (priority 2011, dated 2015).
Like-named read-outs stand apart in the source and are kept apart here.

Tests used:
[1] = Conversion of prodrug derivatives to active inhibitors in mouse plasma; type: in vitro ADME; conditions: 37° C., 10 μM start, prodrug remaining; for [ ] (μM) t0 min. Prodrug: 0 min; for [ ] (μM) t15 min. Prodrug: 15 min; for [ ] (μM) t30 min. Prodrug: 30 min; for [ ] (μM) t60 min. Prodrug: 60 min; for [ ] (μM) t120 min. Prodrug: 120 min
Experimental: (§1) The samples were then analysed by LC-MS/MS to obtain the amount of active compound appearing and prodrug derivative remaining over time. The mouse plasma assay system is considered to be a good model for human behaviour. Nevertheless data obtained in a human plasma assay system was obtained in some cases.
(§2) Prodrug derivatives were assessed in the mouse and human plasma stability assay at a concentration of 10 μM. Test compounds were diluted in DMSO to a final stock concentration of 10 mM. For the purpose of the assay, the stocks prepared were further diluted in DMSO to a concentration of 400 μM and […] were added to 195 μl of mouse or human plasma (pH 7.4) and then incubated at 37° C. The final concentration of DMSO in the plate was 2.5% (v/v). Reactions were terminated at 0, 15, 30, 60 and 120 min after incubation by adding 400 μl of acetonitrile containing 0.55 μM metoprolol and 1% (v/v) formic acid. The plate was then centrifuged at 3000 rpm, for 45 min, at 4° C. 80 μl of supernatant were transferred into a conical bottom 96 well glass coated plate. 40 μl of water were added prior to analysis for prodrug derivative and active species by LC-MS/MS. This assay was performed by a contract research organisation, Cyprotex Discovery Limited, UK, at the request of the inventors at Leicester.
(§3) (1) The active compound was quantified using a 6 point calibration curve prepared in deactivated mouse and human plasma. (2) The percentage of parent compound remaining at each time point relative to 0 min sample was calculated from LC-MS/MS peak area ratios (compound peak area/internal standard peak area). This percentage was then used to determine the concentration of the parent compound at each time point in reference to the starting concentration (10 μM) at time 0 min.

pneumolysin = pneumolysin (Streptococcus pneumoniae serotype 2, UniProt Q04IN8); experiment: Inhibition of the haemolytic activity of pneumolysin (sheep erythrocytes); type: cell-based; conditions: class symbols of Table 1
[2] = type: in vitro ADME; conditions: human plasma, 37° C., 10 μM start, prodrug remaining; for [ ] (μM) t0 min. Prodrug (Human): 0 min; for [ ] (μM) t15 min. Prodrug (Human): 15 min; for [ ] (μM) t30 min. Prodrug (Human): 30 min; for [ ] (μM) t60 min. Prodrug (Human): 60 min; for [ ] (μM) t120 min. Prodrug (Human): 120 min
Experimental: as §1, §2, §3

[3] = IC50, inhibition of pneumolysin-induced haemolysis of sheep erythrocytes
[4] = inhibition of pneumolysin-induced haemolysis of sheep erythrocytes, read-out: IC50
[5] = inhibition of pneumolysin-induced haemolysis of sheep erythrocytes

Chain of pneumolysin (Q04IN8 whole entry): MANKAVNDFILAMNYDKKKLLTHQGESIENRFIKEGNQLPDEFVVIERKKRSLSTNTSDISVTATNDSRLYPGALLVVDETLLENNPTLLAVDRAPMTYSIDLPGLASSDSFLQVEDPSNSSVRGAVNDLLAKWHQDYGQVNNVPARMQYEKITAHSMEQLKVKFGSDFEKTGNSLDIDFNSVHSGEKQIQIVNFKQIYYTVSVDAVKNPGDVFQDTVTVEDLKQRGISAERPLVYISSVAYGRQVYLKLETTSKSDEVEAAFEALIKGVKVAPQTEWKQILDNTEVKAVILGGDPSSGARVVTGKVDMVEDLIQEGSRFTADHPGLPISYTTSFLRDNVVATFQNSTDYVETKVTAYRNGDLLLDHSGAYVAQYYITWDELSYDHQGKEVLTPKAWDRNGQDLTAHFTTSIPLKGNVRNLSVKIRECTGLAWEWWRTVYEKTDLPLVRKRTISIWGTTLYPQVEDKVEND

CCOC(=O)c1c(OC(C)=O)c(OC(C)=O)c(C(=O)N(C)C)n1-c1ccc(OC)cc1 [UL1-044, 2-(dimethylcarbamoyl)-5-(ethoxycarbonyl)-1-(4-methoxyphenyl)-1H-pyrrole-3,4-diyl diacetate]
[ ] (μM) t0 min. Prodrug [1]: 10 µM | [ ] (μM) t15 min. Prodrug [1]: 0 µM | [ ] (μM) t30 min. Prodrug [1]: 0 µM | [ ] (μM) t60 min. Prodrug [1]: 0 µM | [ ] (μM) t120 min. Prodrug [1]: 0 µM | IC50 (pneumolysin; [3]): < 10 µM

CCOC(=O)c1c(OC(=O)N(C)C)c(OC(=O)N(C)C)c(C(=O)N(C)C)n1-c1ccc(OC)cc1 [UL1-063, ethyl 5-(dimethylcarbamoyl)-3,4-bis((dimethylcarbamoyl)oxy)-1-(4-methoxyphenyl)-1H-pyrrole-2-carboxylate]
[ ] (μM) t0 min. Prodrug [1]: 10 µM | [ ] (μM) t15 min. Prodrug [1]: 10 µM | [ ] (μM) t30 min. Prodrug [1]: 9.20 µM | [ ] (μM) t60 min. Prodrug [1]: 9.40 µM | [ ] (μM) t120 min. Prodrug [1]: 8.50 µM | IC50 (pneumolysin; [4]): > 60 µM

CCOC(=O)c1c(OC(=O)N2CCN(C)CC2)c(OC(=O)N2CCN(C)CC2)c(C(=O)N(C)C)n1-c1ccc(OC)cc1 [UL1-064, 2-(dimethylcarbamoyl)-5-(ethoxycarbonyl)-1-(4-methoxyphenyl)-1H-pyrrole-3,4-diyl bis(4-methylpiperazine-1-carboxylate)]
[ ] (μM) t0 min. Prodrug [1]: 10 µM | [ ] (μM) t15 min. Prodrug [1]: 3.10 µM | [ ] (μM) t30 min. Prodrug [1]: 7.00 µM | [ ] (μM) t60 min. Prodrug [1]: 5.00 µM | [ ] (μM) t120 min. Prodrug [1]: 2.20 µM | IC50 (pneumolysin; [4]): > 60 µM

CCOC(=O)c1c(OC(=O)N2CCC(N3CCCCC3)CC2)c(OC(=O)N2CCC(N3CCCCC3)CC2)c(C(=O)N(C)C)n1-c1ccc(OC)cc1 [UL1-065, 2-(dimethylcarbamoyl)-5-(ethoxycarbonyl)-1-(4-methoxyphenyl)-1H-pyrrole-3,4-diyl bis([1,4′-bipiperidine]-1′-carboxylate)]
[ ] (μM) t0 min. Prodrug [1]: 10 µM | [ ] (μM) t15 min. Prodrug [1]: 4.21 µM | [ ] (μM) t30 min. Prodrug [1]: 3.72 µM | [ ] (μM) t60 min. Prodrug [1]: 2.57 µM | [ ] (μM) t120 min. Prodrug [1]: 1.14 µM | IC50 (pneumolysin; [4]): > 60 µM

CCOC(=O)c1c(O)c(OC(=O)N(C)C)c(C(=O)N(C)C)n1-c1ccc(OC)cc1 [UL1-066, ethyl 5-(dimethylcarbamoyl)-4-((dimethylcarbamoyl)oxy)-3-hydroxy-1-(4-methoxyphenyl)-1H-pyrrole-2-carboxylate]
[ ] (μM) t0 min. Prodrug [1]: 10 µM | [ ] (μM) t15 min. Prodrug [1]: 9.90 µM | [ ] (μM) t30 min. Prodrug [1]: 10.00 µM | [ ] (μM) t60 min. Prodrug [1]: 9.78 µM | [ ] (μM) t120 min. Prodrug [1]: 9.50 µM | IC50 (pneumolysin; [4]): < 10 µM

CCOC(=O)c1c(OC(=O)C(C)C)c(OC(=O)C(C)C)c(C(=O)N(C)C)n1-c1ccc(OC)cc1 [UL1-067, 2-(dimethylcarbamoyl)-5-(ethoxycarbonyl)-1-(4-methoxyphenyl)-1H-pyrrole-3,4-diyl bis(2-methylpropanoate)]
[ ] (μM) t0 min. Prodrug [1]: 10 µM | [ ] (μM) t15 min. Prodrug [1]: 0 µM | [ ] (μM) t30 min. Prodrug [1]: 0 µM | [ ] (μM) t60 min. Prodrug [1]: 0 µM | [ ] (μM) t120 min. Prodrug [1]: 0 µM | IC50 (pneumolysin; [3]): 20 to 60 µM

CCOC(=O)c1c(OC(=O)C(C)(C)C)c(OC(=O)C(C)(C)C)c(C(=O)N(C)C)n1-c1ccc(OC)cc1 [UL1-068, 2-(dimethylcarbamoyl)-5-(ethoxycarbonyl)-1-(4-methoxyphenyl)-1H-pyrrole-3,4-diyl bis(2,2-dimethylpropanoate)]
[ ] (μM) t0 min. Prodrug [1]: 10 µM | [ ] (μM) t15 min. Prodrug [1]: 3.02 µM | [ ] (μM) t30 min. Prodrug [1]: 1.00 µM | [ ] (μM) t60 min. Prodrug [1]: 0.136 µM | [ ] (μM) t120 min. Prodrug [1]: 0 µM | IC50 (pneumolysin; [5]): > 60 µM

CCOC(=O)c1c(O)c(OS(N)(=O)=O)c(C(=O)N(C)C)n1-c1ccc(OC)cc1 [UL1-069, ethyl 5-(dimethylcarbamoyl)-3-hydroxy-1-(4-methoxyphenyl)-4-(sulfamoyloxy)-1H-pyrrole-2-carboxylate]
[ ] (μM) t0 min. Prodrug [1]: 10 µM | [ ] (μM) t15 min. Prodrug [1]: 9.90 µM | [ ] (μM) t30 min. Prodrug [1]: 9.70 µM | [ ] (μM) t60 min. Prodrug [1]: 9.60 µM | [ ] (μM) t120 min. Prodrug [1]: 9.90 µM | IC50 (pneumolysin; [3]): < 10 µM

CCOC(=O)c1c(O)c(OP(=O)(O)O)c(C(=O)N(C)C)n1-c1ccc(OC)cc1 [UL1-070, ethyl 5-(dimethylcarbamoyl)-3-hydroxy-1-(4-methoxyphenyl)-4-(phosphonooxy)-1H-pyrrole-2-carboxylate]
[ ] (μM) t0 min. Prodrug [1]: 10 µM | [ ] (μM) t15 min. Prodrug [1]: 6.40 µM | [ ] (μM) t30 min. Prodrug [1]: 4.73 µM | [ ] (μM) t60 min. Prodrug [1]: 2.43 µM | [ ] (μM) t120 min. Prodrug [1]: 0.93 µM | IC50 (pneumolysin; [3]): 20 to 60 µM | [ ] (μM) t0 min. Prodrug (Human) [2]: 10 µM | [ ] (μM) t15 min. Prodrug (Human) [2]: 8.02 µM | [ ] (μM) t30 min. Prodrug (Human) [2]: 8.28 µM | [ ] (μM) t60 min. Prodrug (Human) [2]: 7.70 µM | [ ] (μM) t120 min. Prodrug (Human) [2]: 7.48 µM

CCOC(=O)c1c(O)c(OC(=O)N2CCC(N3CCCCC3)CC2)c(C(=O)N(C)C)n1-c1ccc(OC)cc1 [UL1-071, 2-(dimethylcarbamoyl)-5-(ethoxycarbonyl)-4-hydroxy-1-(4-methoxyphenyl)-1H-pyrrol-3-yl [1,4′-bipiperidine]-1′-carboxylate]
[ ] (μM) t0 min. Prodrug [1]: 10 µM | [ ] (μM) t15 min. Prodrug [1]: 9.50 µM | [ ] (μM) t30 min. Prodrug [1]: 9.00 µM | [ ] (μM) t60 min. Prodrug [1]: 8.72 µM | [ ] (μM) t120 min. Prodrug [1]: 7.39 µM | IC50 (pneumolysin; [4]): 20 to 60 µM

CCOC(=O)c1c(OP(=O)(OCC)OCC)c(OP(=O)(OCC)OCC)c(C(=O)N(C)C)n1-c1ccc(OC)cc1 [UL1-092, ethyl 3,4-bis((diethoxyphosphoryl)oxy)-5-(dimethylcarbamoyl)-1-(4-methoxyphenyl)-1H-pyrrole-2-carboxylate]
[ ] (μM) t0 min. Prodrug [1]: 10 µM | [ ] (μM) t15 min. Prodrug [1]: 5.12 µM | [ ] (μM) t30 min. Prodrug [1]: 4.67 µM | [ ] (μM) t60 min. Prodrug [1]: 4.59 µM | [ ] (μM) t120 min. Prodrug [1]: 3.70 µM | IC50 (pneumolysin; [4]): > 60 µM

CCOC(=O)c1c(OP(=O)(OCC)OCC)c(O)c(C(=O)N(C)C)n1-c1ccc(OC)cc1 [UL1-094, ethyl 3-((diethoxyphosphoryl)oxy)-5-(dimethylcarbamoyl)-4-hydroxy-1-(4-methoxyphenyl)-1H-pyrrole-2-carboxylate]
[ ] (μM) t0 min. Prodrug [1]: 10 µM | [ ] (μM) t15 min. Prodrug [1]: 9.99 µM | [ ] (μM) t30 min. Prodrug [1]: 9.22 µM | [ ] (μM) t60 min. Prodrug [1]: 8.78 µM | [ ] (μM) t120 min. Prodrug [1]: 8.49 µM | IC50 (pneumolysin; [4]): 20 to 60 µM

CCOC(=O)c1c(OC(=O)C(C)C)c(OC(=O)C(C)C)c(C(=O)N(C)C)n1-c1ccc(OCCOCCOCCOC)cc1 [UL1-098, 2-(dimethylcarbamoyl)-5-(ethoxycarbonyl)-1-(4-(2-(2-(2-methoxyethoxy)ethoxy)ethoxy)phenyl)-1H-pyrrole-3,4-diyl bis(2-methylpropanoate)]
[ ] (μM) t0 min. Prodrug [1]: 10 µM | [ ] (μM) t15 min. Prodrug [1]: 0 µM | [ ] (μM) t30 min. Prodrug [1]: 0 µM | [ ] (μM) t60 min. Prodrug [1]: 0 µM | [ ] (μM) t120 min. Prodrug [1]: 0 µM | IC50 (pneumolysin; [5]): > 60 µM | [ ] (μM) t0 min. Prodrug (Human) [2]: 10 µM | [ ] (μM) t15 min. Prodrug (Human) [2]: 5.42 µM | [ ] (μM) t30 min. Prodrug (Human) [2]: 3.45 µM | [ ] (μM) t60 min. Prodrug (Human) [2]: 1.76 µM | [ ] (μM) t120 min. Prodrug (Human) [2]: 0.65 µM

CCOC(=O)c1c(OC(=O)CCOCCOC)c(OC(=O)CCOCCOC)c(C(=O)N(C)C)n1-c1ccc(OC)cc1 [UL1-105, 2-(dimethylcarbamoyl)-5-(ethoxycarbonyl)-1-(4-methoxyphenyl)-1H-pyrrole-3,4-diyl bis(3-(2-methoxyethoxy)propanoate)]
[ ] (μM) t0 min. Prodrug [1]: 10 µM | [ ] (μM) t15 min. Prodrug [1]: 0 µM | [ ] (μM) t30 min. Prodrug [1]: 0 µM | [ ] (μM) t60 min. Prodrug [1]: 0 µM | [ ] (μM) t120 min. Prodrug [1]: 0 µM | IC50 (pneumolysin; [3]): < 10 µM

CCOC(=O)c1c(OC(=O)C(C)(C)COCCCOP(=O)(O)O)c(OC(=O)C(C)(C)COCCCOP(=O)(O)O)c(C(=O)N(C)C)n1-c1ccc(OC)cc1 [UL1-118, 2-(dimethylcarbamoyl)-5-(ethoxycarbonyl)-1-(4-methoxyphenyl)-1H-pyrrole-3,4-diyl bis(2,2-dimethyl-3-(3-(phosphonooxy)propoxy)propanoate)]
[ ] (μM) t0 min. Prodrug [1]: 10 µM | [ ] (μM) t15 min. Prodrug [1]: 6.04 µM | [ ] (μM) t30 min. Prodrug [1]: 4.00 µM | [ ] (μM) t60 min. Prodrug [1]: 1.68 µM | [ ] (μM) t120 min. Prodrug [1]: 0.23 µM | IC50 (pneumolysin; [3]): < 10 µM

CN(C)C(=O)c1c(O)c(O)c(C(=O)N(C)C)n1-c1ccc(F)cc1 [ULI-008, 1-(4-fluorophenyl)-3,4-dihydroxy-N^2,N^2,N^5,N^5-tetramethyl-1H-pyrrole-2,5-dicarboxamide]
IC50 (pneumolysin; [3]): < 10 µM
